The text below walks through data of article PMC5402304, “Oxoaporphine Metal Complexes (Co^II, Ni^II, Zn^II) with High Antitumor Activity by Inducing Mitochondria-Mediated Apoptosis and S-phase Arrest in HepG2” (Scientific Reports, 2017).

Several values for one entry are separate records, joined by “and”; a condition that tells them apart may be missing. Equal entries are not always repeated.

What all share (format): cell-based, human
Assay [1] concerns HepG2. Nature of the assay: MTT cytotoxicity assay, HepG2. The procedure:
(§1) The in vitro cytotoxicity of OD, 1–3 and the corresponding metal salts were determined by MTT assay towards a panel of human tumor cells including HepG2, T-24, BEL-7404, MGC80-3, SK-OV-3/DDP and normal HL-7702 cells. As the positive control, cisplatin was dissolved at a concentration of 1 mM in 0.154 M NaCl[32].
(§2) The human tumor cell lines (BEL-7404, HepG2, MGC80–3, T-24, SK-OV-3/DDP and HeLa cells) and the human normal liver cell line HL-7702 were obtained from Shanghai Cell Bank in Chinese Academy of Sciences. Cells were cultured in Dulbecco’s modified Eagle’s medium (DMEM) or RPMI-1640 medium, which supplemented with 10% fetal bovine serum (FBS) and 100 U/mL penicillin and streptomycin. Cells were cultured at 37 °C in a humidified atmosphere with 5% CO2/95% air. Tested compounds (2.0 mM) were prepared as DMSO stock solution before they were diluted to working concentrations by PBS buffer (containing 0.5% DMSO), while cisplatin dissolved in 0.9% sodium chloride solution was used as positive controls.
(§3) Cells in their logarithmic phase were seeded in 96-well plates with 5.5 × 10^3/180 μL per well for 24 h. Then 20 μL of compounds at various concentrations were added to each well to achieve final concentrations of 1.25, 2.5, 5.0, 10.0, and 20.0 μM. All the cells were incubated with test compounds for another 48 h before MTT assay. Control wells contained media with 0.5% DMSO. After 48 h of cultivation, 10 μL of MTT (5 mg/mL in PBS) was added to each well, and cells were incubated at 37 °C for 6 h. The contents in the wells were pipetted out carefully, and the formazan crystals formed were dissolved in 100 μL of DMSO, and the absorbance was measured by enzyme labeling instrument with 490 nm/630 nm double wavelength measurement. The IC50 value was defined as a drug concentration killing 50% cells in comparison with untreated controls, which was calculated by the Bliss method (n = 5). All tests were repeated in at least three independent trials.

The next assay relates to T-24. Nature of the assay: MTT cytotoxicity assay, T-24. The procedure:
as §1, §2, §3

Another assay concerns BEL-7404. The assay is described as follows: MTT cytotoxicity assay, BEL-7404. The procedure: as §1, §2, §3
The next assay relates to SK-OV-3/DDP. Nature of the assay: MTT cytotoxicity assay, SK-OV-3/DDP. The following applies: 48 h. The procedure:
as §1, §2, §3

Assay [2] concerns HepG2. The assay is described as follows: Cell apoptosis assay by flow cytometry, Annexin V-FITC/PI. Particulars: HepG2, 5.0 μM, 24 h. The procedure: The quantitative analysis of apoptotic HepG2 induced by 1–3 (1.0, 2.0 and 5.0 μM) and their corresponding metal salts (5.0 μM) after 24 h treatment, were investigated by flow cytometry and Annexin V-FITC/PI double staining. As depicted in Figs 7 and S6, 1–3 caused a significant increase in apoptotic cells comparing to the untreated cells.
Cell cycle progression and apoptosis were determined by flow cytometric analysis. (a) Cell cycle arrest assay: HepG2 cells in their logarithmic phase were plated into 50 mL plates at a final density of 5−6 × 10^6 cells/well overnight, then they were treated with various doses (0.25, 0.5 and 1.0 μM) of 1–3 for another 24 h. Cells were trypsinized, collected, and fixed in ice-cold 75% ethanol at −20 °C overnight. After centrifugation, the fixed cells were rinsed with ice-cold phosphate buffered saline (PBS), and resuspended in 0.5 mL of PBS containing 100 μg/mL RNase, 50 μg/mL propidium iodide (PI) in the dark for 5−10 min. The cell cycle distribution was analyzed by FACS Calibur flow cytometer (BD) and calculated using ModFIT LT software. (b) Apoptosis assay: 1 × 10^5 HepG2 cells were plated in 6-well plates, after incubation for 24 h with complexes 1–3 at 1.0, 2.0 and 5.0 μM, cells were collected, and Apoptosis Detection kit FITC Annexin V was used to analyze the cell apoptosis according to the manufacturer’s instructions.

Another assay deals with caspase-3. Nature of the assay: Caspase-3 activation by flow cytometry (CaspGLOW). Particulars: HepG2, 1.0 μM, 24 h; control 4.2%. The procedure:
(§4) Caspase family is closely related to the cell apoptosis via the mitochondrial pathway, especially caspases-3, -8 and -9. To better understand the antitumor mechanisms, it needs to confirm whether caspase-3, -8 and -9 are activated when the tumor cells are treated with 1–3.
(§5) The measurement of caspase-3, -8 and -9’s activities was performed by CaspGLOW fluorescein active caspase-3, -8 and -9 staining kit. HepG2 cells were treated with 1 μM 1–3 for 24 h, harvested at a density of 1 × 10^6 cells/mL, and then suspended in 300 μL volume with PBS. To the suspension, 1 μL of caspase-3 inhibitor (FITC-DEVD-FMK), caspase-8 inhibitor (FITC-IETD-FMK) or caspase-9 inhibitor (FITC-LEHD-FMK) was consequently added and incubated for 1 h at 37 °C in 5% CO2 incubator. The cells were then examined by a FACSAria II flow cytometer equipped with a 488 nm argon laser. The results were represented as the percent change on the activity compared with the control.

The subject of the next assay is caspase-8. Nature of the assay: Caspase-8 activation by flow cytometry (CaspGLOW). The following applies: HepG2, 1.0 μM, 24 h; control 1.8%. The procedure:
as §4, §5

Another assay concerns caspase-9. Nature of the assay: Caspase-9 activation by flow cytometry (CaspGLOW). The following applies: HepG2, 1.0 μM, 24 h; control 1.9%. The procedure:
as §4, §5

[Zn(OD)2(H2O)2] (ClO4)2 [Complex 3]: the inhibitive ratio is 89.58±1.22% with HepG2 [1] (HepG2, 20 μmol/L, 48 h); 84.16±0.76% with T-24 (T-24, 20 μmol/L, 48 h); 61.00±0.19% in the assay on BEL-7404 (BEL-7404, 20 μmol/L, 48 h); 70.80±1.69% in the assay on SK-OV-3/DDP (SKOV-3/DDP, 20 μmol/L). The IC50 in the assay with HepG2 [1] (HepG2, 48 h, MTT) turned out to be 390 ± 30 nM; in the assay with T-24 (T-24, 48 h, MTT), 510 ± 170 nM; with BEL-7404 (BEL-7404, 48 h, MTT) it was 12600 ± 450 nM; in the assay on SK-OV-3/DDP (SK-OV-3/DDP, MTT), 570 ± 70 nM. In addition, the “population of apoptotic cells” value with HepG2 [2] was found to be 25.3%. In addition, the “proportion of activated caspase-3” value with caspase-3 is 36.9% and 36.5%. In addition, the “proportion of activated caspase-8” value with caspase-8 is given as 41.5%. Further, the “proportion of activated caspase-9” value with caspase-9 is reported as 32.6%.
